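Cultured in 96-well plates, cells were exposed to test compound for 48 hours across five concentrations. GI50 = concentration required for 50% inhibition of growth.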 Activity calls are given as the source filed them. No stated cut-off is given here; in the data, active = GI50 up to about 1.1 µM and inactive = higher.
Key:
Assay in all cases: NCI tumour cell line growth inhibition, 48 h
CCRF-CEM = test system: CCRF-CEM
SNB-75 = test system: SNB-75
786-0 = test system: 786-0
A498 = test system: A498
A549 = test system: A549
ACHN = test system: ACHN
COLO 205 = test system: COLO 205
DU-145 = test system: DU-145
EKVX = test system: EKVX
HCC 2998 = test system: HCC 2998
HCT-116 = test system: HCT-116
HCT-15 = test system: HCT-15
HOP-62 = test system: HOP-62
HOP-92 = test system: HOP-92
HT-29 = test system: HT-29
Hs-578T = test system: Hs-578T
IGROV-1 = test system: IGROV-1
K562 = test system: K562
KM12 = test system: KM12
M14 = test system: M14
MCF7 = test system: MCF7
MDA-MB-231 = test system: MDA-MB-231
MDA-MB-435 = test system: MDA-MB-435
MDA-N = test system: MDA-N
MOLT-4 = test system: MOLT-4
NCI-H226 = test system: NCI-H226
NCI-H23 = test system: NCI-H23
NCI-H460 = test system: NCI-H460
NCI/ADR-RES = test system: NCI/ADR-RES
OVCAR-3 = test system: OVCAR-3
OVCAR-4 = test system: OVCAR-4
OVCAR-5 = test system: OVCAR-5
OVCAR-8 = test system: OVCAR-8
RPMI-8226 = test system: RPMI-8226
RXF 393 = test system: RXF 393
SF-268 = test system: SF-268
SF-295 = test system: SF-295
SF-539 = test system: SF-539
SK-MEL-28 = test system: SK-MEL-28
SK-MEL-2 = test system: SK-MEL-2
SK-MEL-5 = test system: SK-MEL-5
SK-OV-3 = test system: SK-OV-3
SN12C = test system: SN12C
SNB-19 = test system: SNB-19
SW-620 = test system: SW-620
T47D = test system: T47D
TK-10 = test system: TK-10
U-251 = test system: U-251
UACC-257 = test system: UACC-257
UACC-62 = test system: UACC-62
UO-31 = test system: UO-31
HL-60 = test system: HL-60
LOX IMVI = test system: LOX IMVI
Malme-3M = test system: Malme-3M
PC-3 = test system: PC-3
SR = test system: SR

How did the GI50 (CCRF-CEM) turn out when `C[C@@H]1O[C@@H](O[C@H]2C[C@@H](O)[C@]3(CO)[C@H]4[C@H](O)C[C@]5(C)[C@@H](C6=CC(=O)OC6)CC[C@]5(O)[C@@H]4CC[C@]3(O)C2)[C@H](O)[C@H](O)[C@H]1O` [OUABAIN] was run?
The GI50 was 21.1 µM (inactive).

What about the GI50 (SNB-75) of the same compound?
Its GI50 is 0.0162 µM (active).

Which GI50 (786-0) does the source give for `CC(=O)Nc1ccc(C(=O)NN2C(=O)CSC2c2ccc([N+](=O)[O-])cc2)cc1` (configuration not stated) here?
The GI50 was > 100 µM (inactive).

What about the GI50 (A498) of the same compound?
Its GI50 is > 100 µM (inactive).

And the GI50 (A549)?
Its GI50 is > 100 µM (inactive).

What about the GI50 (ACHN) of the same compound?
The GI50 was > 100 µM (inactive).

What about the GI50 (CCRF-CEM) of the same compound?
Its GI50 is > 100 µM (inactive).

What about the GI50 (COLO 205) of the same compound?
Its GI50 is > 100 µM (inactive).

What about the GI50 (DU-145) of the same compound?
The GI50 was > 100 µM (inactive).

And the GI50 (EKVX)?
Its GI50 is > 100 µM (inactive).

What about the GI50 (HCC 2998) of the same compound?
The GI50 was > 100 µM (inactive).

What about the GI50 (HCT-116) of the same compound?
The GI50 was > 100 µM (inactive).

And the GI50 (HCT-15)?
The GI50 was over 100 µM.

And the GI50 (HOP-62)?
The GI50 was > 100 µM (inactive).

What about the GI50 (HOP-92) of the same compound?
The GI50 was > 100 µM (inactive).

And the GI50 (HT-29)?
Its GI50 is > 100 µM (inactive).

What about the GI50 (Hs-578T) of the same compound?
The GI50 was > 100 µM (inactive).

What about the GI50 (IGROV-1) of the same compound?
The GI50 was > 100 µM (inactive).

And the GI50 (K562)?
Its GI50 is > 100 µM (inactive).

What about the GI50 (KM12) of the same compound?
The GI50 was > 100 µM (inactive).

And the GI50 (M14)?
Its GI50 is > 100 µM (inactive).

What about the GI50 (MCF7) of the same compound?
Its GI50 is > 100 µM (inactive).

And the GI50 (MDA-MB-231)?
The GI50 was 75.9 µM (inactive).

What about the GI50 (MDA-MB-435) of the same compound?
Its GI50 is > 100 µM (inactive).

What about the GI50 (MDA-N) of the same compound?
Its GI50 is > 100 µM (inactive).

What about the GI50 (MOLT-4) of the same compound?
The GI50 was > 100 µM (inactive).

What about the GI50 (NCI-H226) of the same compound?
Its GI50 is > 100 µM (inactive).

What about the GI50 (NCI-H23) of the same compound?
Its GI50 is > 100 µM (inactive).

What about the GI50 (NCI-H460) of the same compound?
Its GI50 is > 100 µM (inactive).

And the GI50 (NCI/ADR-RES)?
The GI50 was > 100 µM (inactive).

And the GI50 (OVCAR-3)?
Its GI50 is > 100 µM (inactive).

What about the GI50 (OVCAR-4) of the same compound?
The GI50 was > 100 µM (inactive).

And the GI50 (OVCAR-5)?
Its GI50 is > 100 µM (inactive).

And the GI50 (OVCAR-8)?
Its GI50 is > 100 µM (inactive).

What about the GI50 (RPMI-8226) of the same compound?
Its GI50 is > 100 µM (inactive).

And the GI50 (RXF 393)?
Its GI50 is > 100 µM (inactive).

And the GI50 (SF-268)?
Its GI50 is 79.8 µM (inactive).

And the GI50 (SF-295)?
The GI50 was > 100 µM (inactive).

What about the GI50 (SF-539) of the same compound?
Its GI50 is > 100 µM (inactive).

And the GI50 (SK-MEL-28)?
The GI50 was > 100 µM (inactive).

And the GI50 (SK-MEL-2)?
The GI50 was > 100 µM (inactive).

And the GI50 (SK-MEL-5)?
Its GI50 is > 100 µM (inactive).

And the GI50 (SK-OV-3)?
Its GI50 is > 100 µM (inactive).

And the GI50 (SN12C)?
The GI50 was > 100 µM (inactive).

What about the GI50 (SNB-19) of the same compound?
The GI50 was > 100 µM (inactive).

And the GI50 (SNB-75)?
Its GI50 is > 100 µM (inactive).

What about the GI50 (SW-620) of the same compound?
The GI50 was > 100 µM (inactive).

What about the GI50 (T47D) of the same compound?
Its GI50 is > 100 µM (inactive).

What about the GI50 (TK-10) of the same compound?
The GI50 was > 100 µM (inactive).

And the GI50 (U-251)?
The GI50 was > 100 µM (inactive).

And the GI50 (UACC-257)?
The GI50 was > 100 µM (inactive).

And the GI50 (UACC-62)?
The GI50 was > 100 µM (inactive).

And the GI50 (UO-31)?
The GI50 was > 100 µM (inactive).

How did the GI50 (A498) turn out when `C[C@H](CCC(=O)O)[C@H]1CC[C@H]2[C@@H]3CC[C@@H]4C[C@H](O)CC[C@]4(C)[C@H]3CC[C@]12C` [LITHOCHOLIC ACID] was run?
The GI50 was > 100 µM (inactive).

How did the GI50 (786-0) turn out when `O=C1CSC2=NC3=C(CSC/C3=C\c3ccccc3)C(c3ccccc3)N12` (configuration not stated) was run?
Its GI50 is > 100 µM (inactive).

And the GI50 (A549)?
Its GI50 is 50.6 µM (inactive).

And the GI50 (ACHN)?
The GI50 was 57.5 µM (inactive).

And the GI50 (CCRF-CEM)?
Its GI50 is 33.8 µM (inactive).

What about the GI50 (COLO 205) of the same compound?
The GI50 was > 100 µM (inactive).

And the GI50 (DU-145)?
Its GI50 is > 100 µM (inactive).

What about the GI50 (EKVX) of the same compound?
Its GI50 is > 100 µM (inactive).

And the GI50 (HCC 2998)?
Its GI50 is > 100 µM (inactive).

What about the GI50 (HCT-116) of the same compound?
The GI50 was 50.2 µM (inactive).

What about the GI50 (HCT-15) of the same compound?
Its GI50 is over 100 µM.

What about the GI50 (HL-60) of the same compound?
Its GI50 is 32.2 µM (inactive).

What about the GI50 (HOP-62) of the same compound?
The GI50 was > 100 µM (inactive).

What about the GI50 (HOP-92) of the same compound?
The GI50 was 46 µM (inactive).

What about the GI50 (HT-29) of the same compound?
The GI50 was 95.5 µM (inactive).

What about the GI50 (Hs-578T) of the same compound?
Its GI50 is > 100 µM (inactive).

And the GI50 (IGROV-1)?
The GI50 was > 100 µM (inactive).

And the GI50 (K562)?
Its GI50 is 39.4 µM (inactive).

And the GI50 (KM12)?
The GI50 was 70.3 µM (inactive).

And the GI50 (LOX IMVI)?
The GI50 was 44.5 µM (inactive).

What about the GI50 (M14) of the same compound?
Its GI50 is 41.5 µM (inactive).

And the GI50 (MCF7)?
Its GI50 is 33.3 µM (inactive).

And the GI50 (MDA-MB-231)?
The GI50 was > 100 µM (inactive).

And the GI50 (MDA-MB-435)?
The GI50 was 65.5 µM (inactive).

And the GI50 (MDA-N)?
The GI50 was 32.6 µM (inactive).

What about the GI50 (MOLT-4) of the same compound?
The GI50 was 53.5 µM (inactive).

What about the GI50 (Malme-3M) of the same compound?
The GI50 was > 100 µM (inactive).

What about the GI50 (NCI-H226) of the same compound?
The GI50 was > 100 µM (inactive).

And the GI50 (NCI-H23)?
The GI50 was 62.1 µM (inactive).

And the GI50 (NCI-H460)?
The GI50 was 81.3 µM (inactive).

What about the GI50 (NCI/ADR-RES) of the same compound?
Its GI50 is > 100 µM (inactive).

What about the GI50 (OVCAR-3) of the same compound?
The GI50 was 88.9 µM (inactive).

What about the GI50 (OVCAR-4) of the same compound?
Its GI50 is > 100 µM (inactive).

What about the GI50 (OVCAR-5) of the same compound?
The GI50 was > 100 µM (inactive).

What about the GI50 (OVCAR-8) of the same compound?
Its GI50 is 86.5 µM (inactive).

And the GI50 (PC-3)?
The GI50 was 28.1 µM (inactive).

What about the GI50 (RPMI-8226) of the same compound?
The GI50 was 31.1 µM (inactive).

And the GI50 (SF-268)?
Its GI50 is > 100 µM (inactive).

What about the GI50 (SF-295) of the same compound?
Its GI50 is > 100 µM (inactive).

And the GI50 (SF-539)?
Its GI50 is > 100 µM (inactive).

And the GI50 (SK-MEL-28)?
Its GI50 is > 100 µM (inactive).

And the GI50 (SK-MEL-2)?
The GI50 was > 100 µM (inactive).

And the GI50 (SK-MEL-5)?
The GI50 was 52.1 µM (inactive).

And the GI50 (SK-OV-3)?
Its GI50 is > 100 µM (inactive).

What about the GI50 (SN12C) of the same compound?
The GI50 was 92.9 µM (inactive).

What about the GI50 (SNB-75) of the same compound?
Its GI50 is 29.6 µM (inactive).

And the GI50 (SR)?
The GI50 was 65.3 µM (inactive).

What about the GI50 (SW-620) of the same compound?
Its GI50 is 84.9 µM (inactive).

What about the GI50 (T47D) of the same compound?
Its GI50 is 52.2 µM (inactive).

And the GI50 (TK-10)?
Its GI50 is > 100 µM (inactive).

What about the GI50 (U-251) of the same compound?
The GI50 was 39.8 µM (inactive).

And the GI50 (UACC-257)?
The GI50 was > 100 µM (inactive).

What about the GI50 (UACC-62) of the same compound?
Its GI50 is > 100 µM (inactive).

What about the GI50 (UO-31) of the same compound?
The GI50 was 24.9 µM (inactive).
